Patent publication US20040170685A1, “Bioactive stents and methods for use thereof” (MediVas, LLC, priority 2003, published 2004)

Tested on: human aortic smooth muscle cells (SMC)
Experiment: Adhesion and proliferation of smooth muscle cells on gelatin coated culture plates, microscopic observation
Format: cell-based
Settings: bioagent 100? m
Excerpt: This Example illustrates the effect of different concentrations of bioactive agents on adhesion and proliferation of epithelial cells (EC) and smooth muscle cells (SMC) on gelatin coated surfaces.
Human Coronary artery endothelial cells (EC) plated on gelatin coated culture plates were co-cultured with EC special media containing one of the bioactive agents shown in Table 1 below in the various concentrations shown.
Twenty four hours later the cells were observed microscopically, stained with trypan blue and counted. The results of the microscopic observation of cell morphology and confluency of culturing the EC in the presence of the Bioagents tested are summarized in Table 2 below. The effect of the various bioagents on EC adhesion and proliferation is shown graphically in FIG. 2.
Effect of different concentrations of the bioagents listed above in Table 1 was also tested using human aortic smooth muscle cells (SMC) under similar conditions as described for EC. The results of the bioagents on adhesion and proliferation of SMC plated on gelatin coated culture plates are summarized in Table 3 below and shown graphically in FIG. 3.

In the case of CCCCCCCCCCCCC/C=C/[C@@H](O)[C@@H](N)COP(=O)(O)O [S1P, Sphingosine 1-Phosphate], the “Microscopic observation for the SMC morphology and Confluency” value was 100% cells died.
